Test results: patent publication US7241787B2, “Substituted N-cycloexylimidazolinones, process for their preparation and their use as medicaments” (Sanofi-Aventis Deutschland GmbH, priority 2004, dated 2007)

Target: T1, human MCH receptor (Homo sapiens, UniProt Q99705)
T1 construct: expressed in transfected cells
Experiment: Functional measurements of cellular calcium flux (FLIPR) to determine IC50 values
Format: cell-based
Conditions: recombinant HEK293 cell line expressing the human MCH receptor, calcium flux after addition of agonist (MCH) in presence of ligand
Excerpt: Functional measurements to determine IC50 values
Cloning of the cDNA for the human MCH receptor, preparation of a recombinant HEK293 cell line which expresses the human MCH receptor, and functional measurements with the recombinant cell line took place in analogy to the description by Audinot et al. (J. Biol. Chem. 276, 13554–13562, 2001). A difference from the reference was, however, the use of the plasmid pEAK8 from EDGE Biosystems (USA) for the construction of the expression vector. The host used for the transfection was a transformed HEK cell line named “PEAK Stable Cells” (likewise from EDGE Biosystems). Functional measurements of the cellular calcium flux after addition of agonist (MCH) in the presence of ligand of the invention took place with the aid of the FLIPR apparatus from Molecular Devices (USA), using protocols of the apparatus manufacturer.

T1 sequence (Q99705 whole entry): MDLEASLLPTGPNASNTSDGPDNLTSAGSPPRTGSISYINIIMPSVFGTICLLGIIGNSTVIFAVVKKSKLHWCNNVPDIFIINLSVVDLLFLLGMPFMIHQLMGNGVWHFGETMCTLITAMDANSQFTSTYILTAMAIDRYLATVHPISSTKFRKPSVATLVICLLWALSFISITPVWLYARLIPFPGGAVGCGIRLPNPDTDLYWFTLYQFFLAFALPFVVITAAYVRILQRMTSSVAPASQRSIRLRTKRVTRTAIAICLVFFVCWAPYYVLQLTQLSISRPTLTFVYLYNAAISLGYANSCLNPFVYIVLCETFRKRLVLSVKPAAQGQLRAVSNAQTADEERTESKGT

SMILES | IC50 [nM]
CN(C)CCO[C@H]1CC[C@H](n2ccn(-c3ccc(OC4CCCC4)cc3)c2=O)CC1 [Example 2, Trans-1-(4-cyclopentyloxy-phenyl)-3-[4-(2-dimethylaminoethoxy)cyclohexyl]-1,3-dihydroimidazol-2-one] | 10 to 2000
O=c1n(-c2ccc(Oc3ccccc3)cc2)ccn1C1CCC(N2CCN(CCO)CC2)CC1 (stereo not shown) [Example 3] | 2000 to 10000
O=c1n(-c2ccc(Oc3ccccc3)cc2)ccn1C1CCC(N2CCNCC2)CC1 (stereo not shown) [Example 5] | 10 to 2000
O=c1n(-c2ccc(Oc3ccccc3)cc2)ccn1C1CCC(NC2CN3CCC2CC3)CC1 (stereo not shown) [Example 6] | 2000 to 10000
O=c1n(-c2ccc(Oc3ccccc3)cc2)ccn1C1CCC(N2CCCNCC2)CC1 (stereo not shown) [Example 8] | 10 to 2000

Continued, values first:

IC50 [nM] | SMILES
10 to 2000 | CC(=O)N[C@@H]1CCN(C2CCC(n3ccn(-c4ccc(Oc5ccccc5)cc4)c3=O)CC2)C1 (stereo partly drawn) [Example 1, (R)-N-(1-{4-[2-oxo-3-(4-phenoxyphenyl)-2,3-dihydroimidazol-1-yl]cyclohexyl}pyrrolidin-3-yl)acetamide]
2000 to 10000 | CN1CCN(C2CCC(n3ccn(-c4ccc(Oc5ccccc5)cc4)c3=O)CC2)CC1 (stereo not shown) [Example 9]
